Measured values reported in patent US10059702B2, “Inhibitors of LC3/ATG3 interaction and their use in the treatment of cancer” (THE JOHNS HOPKINS UNIVERSITY, priority 2014, dated 2018).

Experiments:
[1] = tested on: MCF-7, a breast cancer cell line; test: Impedance assay (xCELLigence, Cell Index), MCF-7; assay type: cell-based; conditions: for effect on cell impedance: MCF-7, 100 μM to 1.5 μM
Procedure: (§1) PTA or Compound 10 were added ranging from 100 μM to 1.5 μM to the cells after […]. The apparent IC50 after 72 hours of drug treatment was calculated and is shown in the inset of each graph of the triplicate impedance measurement per concentration. The DMSO vehicle control is shown as dark red line.
(§2) MCF-7 cells were maintained in RPMI media supplemented with 10% fetal bovine serum. HepG2 cells were maintained in Dulbecco's modified Eagle medium (DMEM, Invitrogen) media supplemented with 10% fetal bovine serum and 1×MEM non-essential amino acids. For cytotoxicity experiments, cells were plated on T-75 flasks and grown until they reached at 70-80% confluency.
(§3) Cell proliferation was monitored in real-time cell electronic sensing (xCELLigence System, Acea Biosciences) through gold microelectrode arrays on the bottom of 96 E-Plates. 100 μl of corresponding culture media was added into each well of 96 E-Plates, which inserted into the station and background measurement was taken. Then, cells (5,000 cells/well in 100 μl) were seeded into 96 E-Plates containing 100 μl medium/well. After about 20 hours, 200 μl medium was discarded and replaced with 100 μl of fresh medium containing indicated amounts of compounds for each well. In the xCELLigence System the changes in cell number are detected as modifications in the measurement of electrical impedance and are represented as Cell Index (CI).
(§4) To define the range of metastasizing cancer cell lines susceptible to PTA derivatives of the present invention, we can use the HUVEC electrical-impedance assay. Invasive tumor cell lines are monitored through electric impedance measurements of human umbilical vein endothelial cells (HUVEC) monolayers in the presence of PTA derivatives. […] The invasion potential of the tumor cell is measured by the change in cell impedance as the HUVEC monolayer junctions are compromised by the invading tumor cells. Cells can be monitored over multiple days while the real-time impedance is recorded. […]

[2] = tested on: HepG2, a hepatocarcinoma cell line; test: Impedance assay (xCELLigence, Cell Index), HepG2; assay type: cell-based; conditions: for effect on cell impedance: HepG2, 100 μM to 1.5 μM
Procedure: as §1, §2, §3, §4

hLC3 = test: SPR binding of purified hLC3 to PTA immobilized on an SPR chip; design: species or system human; conditions: read-out: affinity of hLC3 to PTA on the SPR chip
Source text: (§5) FIGS. 2A-2C depict the properties of the PTA-binding site on hLC3. 2A) Energy-minimized docking pose of PTA to hLC3. The pyridinylthiazolamine ringsystem predominantly binds to the W-site of hLC3. 2B) Conservation of amino acids between hLC3 and Plasmodium Atg8. Shown in yellow sticks is the bound peptide of Atg3. The W-Site is highly conserved, whereas the L-site is less conserved, explaining the lower affinity of hLC3 to PTA (FIGS. 2A, 2B adapted from Hain et al. 2013). 2C) Direct binding interaction of purified hLC3 or PfAtg8 to PTA immobilized on a SPR chip to determine their respective affinities.
(§6) In comparing the sequence conservation of this W-/L-site between PfAtg8 and hLC3, it is apparent that the W-site has maintained a higher degree of conservation, as indicated by the magenta patch in FIG. 2B. To test whether or not the W-/L-site of Atg8 was indeed the interaction area to which our small molecules bind, we performed SPR binding studies with different Atg8-homologs, essentially mimicking mutational studies in the environment of the W-/L-site. This allowed us to explore the key features of the binding site in a manner that was much more efficient than introducing multiple single point mutations for each protein of interest at a time.
(§7) SPR studies were performed on PfAtg8 and hLC3 binding to the PTA molecule immobilized on an SPR chip. […]

PfAtg8 [3] = biological target: T1, PfAtg8 (Plasmodium falciparum, UniProt Q8IJK2); test: SPR binding of purified PfAtg8 to PTA immobilized on an SPR chip; conditions: comparison of hLC3 with PfAtg8
T1 sequence (Q8IJK2 1-124): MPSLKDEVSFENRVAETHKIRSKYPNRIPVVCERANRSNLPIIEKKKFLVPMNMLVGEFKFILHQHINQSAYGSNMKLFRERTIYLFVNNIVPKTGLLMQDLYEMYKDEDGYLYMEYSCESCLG
Source text: as §5, §6, §7

[4] = tested on: hLC3 with hAtg3 interaction; test: hLC3/hAtg3 protein-protein interaction in vitro; assay type: binding, human
Procedure: Our structural understanding of how the hLC3 binds the PTA-scaffold combined with surface plasmon resonance (SPR)-interaction studies, has enabled the inventors to design the PTA-analogs of the present invention with low Koff-rates. […] These new PTA-analogs are tested in SPR-based assays with purified recombinant hLC3 and hAtg3 to assess their ability to prevent the protein-protein interaction. Newly emerging molecules from our efforts are subjected to dose-dependent cell based screening with our cancer line collection.
About 120 PTA-homologs were identified in the PubChem database (pubchem.ncbi.nlm.nih.gov) that are available through commercial vendors. In a first assessment to determine which homologs to focus on initially, virtual library screening was performed with the known hLC3 structures (1UGM, 3ECI, 3WAL, 3WAO). Comparing the docking results from different structures of hLC3 allowed us to assemble a short list of nine high priority compounds (compounds 1-9). […] Two complementary assays will be utilized, the first assesses the small molecule's ability to block the protein-protein interaction of hLC3 with hAtg3. The second assay is used to directly measure the binding of the small molecule to immobilized hLC3 on an SPR chip, which will allow us to draw conclusions about the physical interaction between the two binding partners.

HCT8 colon cancer cells = test: PTA-susceptibility of HCT8 colon cancer cells: microscopy and anti-LC3 Western blot; assay type: cell-based, human; conditions: 24 hours
Source text: FIG. 4 provides an anti-LC3 Western blot of PTA treated HCT8 colon cancer cells with corresponding Coomassie stained 4-20% SDS-PAGE. The arrows indicate the band used for quantification with ImageJ. The SDS gel indicates approximate equal amounts were loaded per lane.
To be functional in autophagy processes, hLC3 undergoes two critical activation processes. First a C-terminal glycine has to be exposed through proteolytic cleavage by the […] protease Atg4. Second, a lipid, phosphatidylethanolamine (PE), is conjugated to the C-terminal glycine residue resulting in hLC3-PE (hLC3-II). The inventors previously discovered 4-formyl-N-(4-pyridin-2-yl-1,3-thiazol-2-yl)benzamide (PTA) as an autophagy inhibitor in their studies on the plasmodial system in search of protein-protein interaction inhibitors of the PfAtg8-PfAtg3 interaction, the homologous system in the malaria parasite. The lipidated form of either Atg8 or hLC3 (hLC3-II) can be resolved from the unlipidated form (hLC3-I) using SDS-PAGE due to their different migration speeds. Specific commercial antibodies for hLC3 detection were used in these studies to quantify the two species via Western blot in treated and untreated cancer cell lines.
We used a DMSO-vehicle control. All experiments were carried out at 1% final DMSO concentration for 24 hours at 37° C. and 5% CO2. […] The DMSO control sample was trypsinized to detach the cells from the culture dish. All cells were collected and spun down before resuspending them in SDS-loading dye for SDS-PAGE and Western blot analysis. Commercial monoclonal antibodies directed against hLC3 (D3U4C Rabbit mAB) and GAPDH (14C10 Rabbit mAB) as loading control were used. The Western blot clearly distinguishes between the un-lipidated (hLC3-I) and lipidated (hLC3-II) form by their migration speed in the SDS-gel (FIG. 4). The lipidated form migrates faster in an SDS-gel due to its additional negative charge from the conjugated phospholipid. […] 0.5% DMSO will be used as a vehicle control and 33 nM Wortmannin as a positive control for autophagy inhibition.

HC-04 liver cells = test: Cytotoxicity in HC-04 liver cells; assay type: cell-based; conditions: 30 μM PTA for 96 hours
PfAtg8 [5] = biological target: PfAtg8 (Plasmodium falciparum, UniProt Q8IJK2); test: Surface plasmon resonance (SPR): direct binding of purified PfAtg8 to PTA immobilized on an SPR chip; conditions: W-/L-site, FIG. 3, read-out: PfAtg8 Kd (binding affinity to PTA)
Source text: as §5
To maintain the identical view, residue differences were painted onto the PfAtg8 structure. Residues in the proximity of the W-/L-site of hLC3 lead to lower binding affinities of our current molecule targeting the Atg8-Atg3 interaction.
as §6, with “This allowed us to explore the key features of the binding site in a manner that was much more efficient than introducing multiple single point mutations for each protein of interest at a time.” left out

| SMILES | effect on cell impedance [1] | effect on cell impedance [2] | Kd (hLC3) | binding affinity to immobilized PTA, hLC3 versus PfAtg8 (PfAtg8 [3]) | prevention of protein-protein interaction of hLC3 with hAtg3 [4] | cell appearance by microscopy at lowest concentration (HCT8 colon cancer cells; HCT8, 6.75 μM PTA) | hLC3 lipidation (hLC3-I / hLC3-II bands) in Western blot (HCT8 colon cancer cells; HCT8, PTA treated) | cell appearance by microscopy (HCT8 colon cancer cells; HCT8, about 100 μM to 6.25 μM PTA, 1% DMSO) | cytotoxic effect / tolerability (HC-04 liver cells) | IC50 ([1]; MCF7a, MCF-7, impedance, 100 μM to 1.5 μM, 72 hours, read-out: apparent IC50 after 72 hours of drug treatment) | IC50 ([2]; Homo sapiens, HepG2, impedance, 100 μM to 1.5 μM, 72 hours, read-out: apparent IC50 after 72 hours of drug treatment) | Kd (PfAtg8 [5]) |
| --- | --- | --- | --- | --- | --- | --- | --- | --- | --- | --- | --- | --- |
| COC(OC)c1ccc(C(=O)Nc2ncc(-c3ccccn3)s2)cc1 [Compound 10] | concentration dependent effect | concentration dependent effect |  |  |  |  |  |  |  |  |  |  |
| O=Cc1ccc(C(=O)Nc2nc(-c3ccccn3)cs2)cc1 [PTA, 4-formyl-N-(4-pyridin-2-yl-1,3-thiazol-2-yl)benzamide] | concentration dependent effect | concentration dependent effect | 18 µM | decrease of binding affinity for hLC3 versus PfAtg8 | specifically prevents the protein-protein interaction of hLC3 with hAtg3 | a few patches of attached cells still visible | accumulation of the slower migrating hLC3-I band is visible | detached, blebbing cells with a concentration dependent phenotype | well tolerated | ~18 µM | ~18 µM | 0.54 µM |
